Measured values taken from patent US10435388B2, “Selective inhibitors of clinically important mutants of the EGFR tyrosine kinase” (CS PHARMATECH LIMITED, priority 2016, dated 2019).
pIC50: −log10 of the molar value. Where “and” joins values, the source holds several entries; their conditions need not be identical. Equal values may be shown once. Where a name gives a salt, the structure may show the parent alone.

How the values were obtained:
[1] = system: A431 cells (WT); assay: A431 inhibition assay (cell proliferation), Method B; format: cell-based, human; conditions: cellular proliferation, several runs
Protocol: Cell Proliferation Assays—Method B
A431 Inhibition Assay, (Cell Proliferation).
The rest procedure was conducted in the same manner as described above for H1975 cells.

[2] = target: T1, INSR (Homo sapiens, UniProt P06213); assay: INSR inhibition assay (Caliper EZ Reader); format: biochemical; conditions: enzyme assay
T1 construct: purchased CARNA BIOSCIENCE 08-142
T1 sequence (P06213 989-1382 limits assumed): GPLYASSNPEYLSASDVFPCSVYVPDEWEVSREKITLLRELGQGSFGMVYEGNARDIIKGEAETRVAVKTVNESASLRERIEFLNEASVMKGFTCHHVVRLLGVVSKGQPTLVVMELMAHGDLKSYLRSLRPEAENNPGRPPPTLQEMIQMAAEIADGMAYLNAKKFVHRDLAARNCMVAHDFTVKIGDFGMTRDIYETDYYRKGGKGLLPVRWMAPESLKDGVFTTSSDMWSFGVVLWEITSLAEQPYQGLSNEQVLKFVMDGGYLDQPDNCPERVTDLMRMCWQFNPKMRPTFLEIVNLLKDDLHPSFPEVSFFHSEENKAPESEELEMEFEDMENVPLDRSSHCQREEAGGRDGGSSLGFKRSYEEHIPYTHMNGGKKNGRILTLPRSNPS

[3] = system: p-EGFR in H1975 cells (L858R/T790M double mutant EGFR); conditions: Homo sapiens, NCI-H1975, 2 h, read-out: H1975 IC50 (nM), cellular EGFR autophosphorylation, 2 h treatment, ELISA
[4] = system: p-EGFR in A431 cells (wild type EGFR, EGF stimulated); assay: Wild type EGFR A431 autophosphorylation inhibition assay (ELISA); format: cell-based, human; conditions: Homo sapiens, A-431, cellular EGFR autophosphorylation, 2 h treatment, EGF stimulation 10 min
Protocol: Cellular EGFR Autophosphorylation Assays.
Wild Type EGFR A431 Autophosphorylation Inhibition Assay (ELISA).
After 2 hour treatment with test compounds, add 4.5 μL of EGF (1 μg/mL) into each well and stimulate for 10 min. The rest of the procedure was processed in the same manner as described above for H1975 cells.

[5] = target: T2, IGF-1R (Homo sapiens, UniProt P08069); assay: IGF-1R inhibition assay (Caliper EZ Reader); format: biochemical; conditions: enzyme assay
T2 construct: purchased CARNA BIOSCIENCE 08-141
T2 sequence (P08069 959-1367 limits assumed): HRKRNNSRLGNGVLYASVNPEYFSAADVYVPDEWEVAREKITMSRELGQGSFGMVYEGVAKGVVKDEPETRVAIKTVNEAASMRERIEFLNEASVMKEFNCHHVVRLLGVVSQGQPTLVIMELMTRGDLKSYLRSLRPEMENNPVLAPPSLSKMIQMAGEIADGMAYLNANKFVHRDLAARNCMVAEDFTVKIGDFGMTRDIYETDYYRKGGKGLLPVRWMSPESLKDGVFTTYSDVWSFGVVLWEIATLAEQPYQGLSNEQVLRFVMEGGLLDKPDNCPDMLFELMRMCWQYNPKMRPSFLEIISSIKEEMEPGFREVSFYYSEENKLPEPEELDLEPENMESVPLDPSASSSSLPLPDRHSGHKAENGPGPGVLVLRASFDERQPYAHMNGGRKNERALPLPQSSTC
Method in brief: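 IGF-1R protein and peptide substrate were preincubated 30 min at RT with compound. Phosphorylated and non-phosphorylated fluorescent peptides were separated by mobility shift, and the read-out is the conversion ratio.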

[6] = system: H1975 cells (DM); assay: H1975 inhibition assay (cell proliferation), Method B; format: cell-based; conditions: cellular proliferation, several runs
[7] = system: PC9 cells (SM); assay: PC-9 growth inhibition assay (cell proliferation), Method B; format: cell-based, human; conditions: cellular proliferation, several runs
[8] = system: p-EGFR in PC9 cells (Exon 19 deletion EGFR); assay: Exon19 deletion EGFR (activating single mutant) PC-9 cellular autophosphorylation assay; format: cell-based, human; conditions: Homo sapiens, PC-9, 2 h, 2 h treatment, ELISA
[9] = Mouse in vivo PK study; conditions: male CDI mice; for F: PO 10 mg/kg vs IV 1 mg/kg; for clearance / half-life / AUC / Cmax: mouse, plasma; for clearance / half-life: IV 1 mg/kg; for half-life: read-out: T1/2 (IV) (converted); for AUC / Cmax: PO 10 mg/kg
Protocol: To determine the drug concentration in plasma of NJB-342, NJB-348 and NJB-463 following intravenous and oral administration in male CDI Mice, to get the pharmacokinetic profile and PK parameters
Test animals: healthy male CDI mice (body weight 20-30 g, 18 mice, free access to food and water), provided by Sibeifu laboratory.
Dose Level and dose route: dosed the animals via intravenous injection from tail vein for IV group (1 mg/kg, 5 mL/kg, 10% DMSO/40% PEG400/50% water), dosed the animals via oral gavage for PO group (10 mg/kg, 10 mL/kg, (10% DMSO/40% PEG400/50% water), respectively.
Samples collection: the healthy animals were used, weighed the bodyweight and marked at tail and cage card prior to dosing. Blood samples (0.03 mL per time point) were collected from dorsal metatarsal vein at 0.083, 0.25, 0.5, 1, 2, 4, 8, 24 h post dose for IV group and at 0.25, 0.5, 1, 2, 4, 8, 24 h post dose for PO group, the terminal time point was collected from heart (˜0.3 mL). The blood samples were put into the tube with heparin-Na coated and then put on the cold box, centrifuged at 4° C. 4000 g, 5 minutes immediately after collecting all samples per time point to get plasma. The plasma samples were stored in a freezer at −75±15° C. prior to analysis.

## C=CC(=O)Nc1cc(Nc2nccc(-n3cc(C(C)=O)c4ccccc43)n2)c(OC)cc1N(C)CCN(C)C [Example 31, N-(5-((4-(3-Acetyl-1H-indol-1-yl)pyrimidin-2-yl)amino)-2-((2-(dimethylamino)ethyl)(methyl)amino)-4-methoxyphenyl) acrylamide]
[1]; Homo sapiens, A-431, 72 h
  pIC50: 5.97
[1]; 72 h
  pIC50: 6.03
[2]
  IC50: 814 nM
[3]
  IC50: 7.64 nM
[4]
  pIC50: 6.79
[5]
  IC50: 765 nM
[6]; Homo sapiens, NCI-H1975, 72 h
  pIC50: 7.86
[6]; 72 h
  pIC50: 7.94
[7]; Homo sapiens, PC-9, 72 h
  pIC50: 8.07
[7]; 72 h
  pIC50: 8.08
[8]
  pIC50: 7.86

## C=CC(=O)Nc1cc(Nc2nccc(-c3cc(C#N)c4[nH]cc(C)c4c3)n2)c(OC)cc1N(C)CCN(C)C [Example 67, N-(5-(4-(7-Cyano-3-methyl-1H-indol-5-yl)pyrimidin-2-ylamino)-2-((2-(dimethylamino)ethyl)(methyl)amino)-4-methoxyphenyl) acrylamide]
[1]; Homo sapiens, A-431, 72 h
  pIC50: 6.30
[2]
  IC50: 403 nM
[3]
  IC50: 1.06 nM
[4]
  pIC50: 6.96
[5]
  IC50: 243 nM
[6]; Homo sapiens, NCI-H1975, 72 h
  pIC50: 8.98
[7]; Homo sapiens, PC-9, 72 h
  pIC50: 8.68
[8]
  pIC50: 8.32

## C=CC(=O)Nc1cc(Nc2nccc(-n3nc(NC)c4ccccc43)n2)c(OC)cc1N(C)CCN(C)C [Example 21, N-(2-((2-(Dimethylamino)ethyl)(methyl)amino)-4-methoxy-5-(4-(3-(methylamino)-1H-indazol-1-yl)pyrimidin-2-ylamino)phenyl) acrylamide]
[9]
  F: 27.2%
  clearance: 9.76 L/h/kg
  half-life: 0.73 h
  AUC: 0.282 µg·h/mL
  Cmax: 0.086 µg/mL
[2]
  IC50: 134 nM
[5]
  IC50: 180 nM
[6]; Homo sapiens, NCI-H1975, 72 h
  pIC50: 8.63
[6]; 72 h
  pIC50: 8.70 and 8.54
[7]; Homo sapiens, PC-9, 72 h
  pIC50: 8.60
[7]; 72 h
  pIC50: 8.63 and 8.35

## C=CC(=O)Nc1cc(Nc2nccc(-c3cc(C(N)=O)cc4c3ccn4C)n2)c(OC)cc1N(C)CCN(C)C [Example 34, 4-(2-((5-Acrylamido-4-((2-(dimethylamino)ethyl)(methyl)amino)-2-methoxyphenyl)amino)pyrimidin-4-yl)-1N-methyl-1H-indole-6-carboxamide hydrochloride]
[9]
  F: 10.3%
  clearance: 6.6 L/h/kg
  half-life: 1.11 h
  AUC: 0.165 µg·h/mL
  Cmax: 0.058 µg/mL
[1]; Homo sapiens, A-431, 72 h
  pIC50: 5.75
[1]; 72 h, hydrochloride
  pIC50: 6.03
[2]
  IC50: 514 nM
[3]
  IC50: 2.19 nM
[4]
  pIC50: 6.40
[5]
  IC50: 470 nM
[6]; Homo sapiens, NCI-H1975, 72 h
  pIC50: 8.34
[6]; 72 h, hydrochloride
  pIC50: 8.49
[7]; Homo sapiens, PC-9, 72 h
  pIC50: 8.14
[7]; 72 h, hydrochloride
  pIC50: 7.96
[8]
  pIC50: 8.15

## C=CC(=O)Nc1cc(Nc2nccc(-n3nc(N(C)C)c4ccccc43)n2)c(OC)cc1N(C)CCN(C)C [Example 42, N-(5-((4-(3-(Dimethylamino)-1H-indazol-1-yl)pyrimidin-2-yl)amino)-2-((2-(dimethylamino)ethyl)(methyl)amino)-4-methoxyphenyl) acrylamide]
[9]
  F: 42.1%
  clearance: 5.82 L/h/kg
  half-life: 1.32 h
  AUC: 0.677 µg·h/mL
  Cmax: 0.176 µg/mL
[1]; Homo sapiens, A-431, 72 h
  pIC50: 6.40
[2]
  IC50: 366 nM
[3]
  IC50: 4.19 nM
[4]
  pIC50: 7.18
[5]
  IC50: 337 nM
[6]; Homo sapiens, NCI-H1975, 72 h
  pIC50: 8.63
[7]; Homo sapiens, PC-9, 72 h
  pIC50: 8.64
[8]
  pIC50: 8.43
